Experimental data from article PMC10376059, “New NADPH Oxidase 2 Inhibitors Display Potent Activity against Oxidative Stress by Targeting p22^phox-p47^phox Interactions” (Antioxidants, 2023).

Molecular target: T1, p47^phox (Homo sapiens, UniProt P14598)
T1 construct: we evaluated p47^phox translocation from the cytosol to the membrane in HL-60 differentiated cells; endogenous in cells; host or cells: neutrophil-differentiated HL-60 cells treated with PMA; membrane and cytosolic fractions obtained by cryo-fracture
T1 sequence (P14598 1-390): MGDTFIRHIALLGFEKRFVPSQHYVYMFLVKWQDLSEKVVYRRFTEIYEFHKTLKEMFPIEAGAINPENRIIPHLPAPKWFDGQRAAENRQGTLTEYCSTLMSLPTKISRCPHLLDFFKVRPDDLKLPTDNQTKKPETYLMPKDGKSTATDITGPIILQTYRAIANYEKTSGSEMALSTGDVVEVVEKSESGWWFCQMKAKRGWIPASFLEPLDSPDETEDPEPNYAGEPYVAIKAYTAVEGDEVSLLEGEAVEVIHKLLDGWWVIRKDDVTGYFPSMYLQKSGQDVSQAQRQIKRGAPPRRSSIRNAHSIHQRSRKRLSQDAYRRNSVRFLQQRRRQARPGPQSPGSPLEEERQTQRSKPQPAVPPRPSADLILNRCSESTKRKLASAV
Assay: p47phox translocation from cytosol to membrane (Western blot) in PMA-stimulated HL-60 differentiated cells
Type: cell-based
Settings: PMA 0.8 µM, 50 μM
Procedure: Neutrophil-differentiated HL-60 cells (2 × 10^6 cells/mL) were incubated at 37 °C in a humid atmosphere with 5% CO2 and 50 μM of the different acrylonitrile compounds, then PMA 0.8 μM was added and incubated for 1 h to induce the activation of the enzyme NADPH oxidase. As a positive inhibition control, VAS2870 (20 μM) was used. Another two controls were performed: one with cells activated by PMA in the presence of DMSO, and the other (NA, non-activated) with cells in the absence of PMA and the acrylonitrile compounds. In 15 mL conical tubes, 5 mL of cell suspension from each treatment and control condition was transferred at 2 × 10^6 cells/mL and centrifuged at 1000 rpm at 4 °C for 10 min. The supernatant was then discarded, and each pellet was re-suspended in 2 mL of a 4% PBS solution with 2 mM EGTA and 0.25 mM PMSF frozen at −80 °C for 10 min. Then each pellet was thawed on ice. After this, the cell suspension was passed through a glass tissue homogenizer (Deltalab®, I.C.T, S.L, La Rioja, Spain) 20 times. The freezing-thawing and homogenization processes were repeated three times. Finally, the homogenate was centrifuged at 15,000 rpm at 4 °C for 15 min. The supernatant (cytosolic fraction) was removed from the pellet (membranes were prepared). A fraction was removed for the determination of total proteins, and the remainder was stored at −80 °C for further analysis. […]

SMILES: N#C/C(=C\c1cc(-c2ccccc2)on1)C(=O)c1c[nH]c2ccccc12 [Compound C6]
- translocation of p47phox to the membrane (in words): significantly reduced the translocation of p47^phox to the membrane
